Where two headings read alike, the source gives them in different places.

We go through eight molecules from US4613610A, “Cholesterol biosynthesis inhibiting pyrazole analogs of mevalonolactone and its derivatives” (Sandoz Pharmaceuticals Corp., priority 1985, dated 1986).

For one assay, the target named is T1, HMG-CoA reductase (Rattus norvegicus, UniProt P51639).
T1 construct: the microsomes are the source of the HMG-CoA reductase enzyme; from tissue; host or cells: liver microsomes of male Sprague-Dawley rats (150-225 g)
T1 sequence (P51639 1-887): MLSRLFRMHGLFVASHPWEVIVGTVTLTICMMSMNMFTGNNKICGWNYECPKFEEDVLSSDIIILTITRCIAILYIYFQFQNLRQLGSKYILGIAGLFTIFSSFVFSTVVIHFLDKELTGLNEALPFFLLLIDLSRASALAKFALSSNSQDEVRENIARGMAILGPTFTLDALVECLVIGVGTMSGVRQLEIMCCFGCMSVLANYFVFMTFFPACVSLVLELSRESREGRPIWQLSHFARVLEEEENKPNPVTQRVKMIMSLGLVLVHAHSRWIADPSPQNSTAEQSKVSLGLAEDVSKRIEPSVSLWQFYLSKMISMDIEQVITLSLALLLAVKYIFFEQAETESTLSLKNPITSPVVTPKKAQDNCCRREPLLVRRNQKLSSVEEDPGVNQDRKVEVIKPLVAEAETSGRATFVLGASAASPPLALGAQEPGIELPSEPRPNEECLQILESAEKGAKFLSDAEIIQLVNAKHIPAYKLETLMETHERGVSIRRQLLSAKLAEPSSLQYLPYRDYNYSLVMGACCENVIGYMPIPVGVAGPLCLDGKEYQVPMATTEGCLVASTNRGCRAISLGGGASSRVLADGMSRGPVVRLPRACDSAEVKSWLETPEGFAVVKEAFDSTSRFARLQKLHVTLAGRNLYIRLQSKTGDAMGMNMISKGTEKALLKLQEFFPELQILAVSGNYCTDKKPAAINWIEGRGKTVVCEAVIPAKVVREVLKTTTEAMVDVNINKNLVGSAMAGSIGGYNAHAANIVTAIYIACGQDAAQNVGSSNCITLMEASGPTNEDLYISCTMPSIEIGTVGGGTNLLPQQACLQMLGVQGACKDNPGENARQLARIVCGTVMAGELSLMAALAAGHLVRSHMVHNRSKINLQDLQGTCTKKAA
Briefly: Test A. In Vitro Microsomal Assay of HMG-CoA Reductase Inhibition. It is filed as biochemical, rat (male Sprague-Dawley rat liver microsomes). The protocol:
Test A. In Vitro Microsomal Assay of HMG-CoA Reductase Inhibition:
200 μl. aliquots (1.08-1.50 mg./ml.) of rat liver microsomal suspensions, freshly prepared from male Sprague-Dawley rats (150-225 g. body weight), in Buffer A with 10 mmol. dithiothreitol are incubated with 10 μl. of a solution of the test substance in dimethylacetamide and assayed for HMG-CoA reductase activity as described in Ackerman et al., J. Lipid Res. 18, 408-413 (1977), the concentration of the test substance in the assay system being 0.0001-2,000 μmolar. In the assay the microsomes are the source of the HMG-CoA reductase enzyme which catalyzes the reduction of HMG-CoA to mevalonate. The assay employs a chloroform extraction to separate the product, [^14 C]mevalonolactone, formed by the HMG-CoA reductase recution of the substrate, [^14 C]HMG-CoA. [^3 H]mevalonolactone is added as an internal reference. Inhibition of HMG-CoA reductase is calculated from the decrease in specific activity ([^14 C/^3 H]mevalonate) of test groups compared to controls.
IC50 is the concentration of the test substance in the assay system calculated or observed to produce a 50% inhibition of HMG-CoA reductase activity.
A general note: Liver microsomes are vesicles of endoplasmic reticulum, rich in cytochrome P450 enzymes.

Assay [1] relates to 3β-hydroxysterol synthesis (cholesterol biosynthesis). Briefly: Test B. In Vivo Cholesterol Biosynthesis Inhibition Test. More on the design: species or system rat (male Wistar Royal Hart). The conditions noted are these: Rattus norvegicus, read-out: ED50 (50% inhibition of 3β-hydroxysterol synthesis).
Procedure: In vivo studies utilize male Wistar Royal Hart rats weighing 150±20 g. which have been kept for 7-10 days on an altered light cycle (6:30 A.M.-6:30 P.M. dark) housed two per cage and fed powdered Purina Rat Chow and water ad libitum. Three hours before the diurnal maximum of cholesterol synthesis at mid-dark, the rats are orally administered the test substance (e.g., 0.01-200 mg./kg. body weight) dissolved or as a suspension in 0.5% carboxymethylcellulose in a volume of 1 ml./100 g. body weight. Controls receive vehicle alone. One hour after receiving the test substance (or the vehicle alone), the rats are injected intraperitoneally with about 25 μCi/100 g. body weight of sodium [1-^14 C]acetate 1-3 mCi/mmol. Two hours after mid-dark, blood samples are obtained under sodium hexobarbitol anesthesia, and the serum is separated by centrifugation.
Serum samples are saponified and neutralized, and the 3β-hydroxysterols are precipitated with digitonin basically as described in Sperry et al., J. Biol. Chem. 187, 97 (1950). The [^14 C]digitonides are then counted by liquid scintillation spectrometry. After correcting for efficiencies, the results are calculted in nCi (nanocuries)of 3β-hydroxysterol formed per 100 ml. of serum. Inhibition of 3β-hydroxysterol synthesis is calculated from the reduction in the nCi of 3β-hydroxysterols formed from test groups compared to controls.
ED50 is the dose of the test substance calculated or observed to produce a 50% inhibition of 3β-hydroxysterol synthesis.
The mark [2] stands for this setting: rat liver microsomal suspensions, test substance 0.0001-2,000 μmolar, calculated or observed, read-out: IC50 (50% inhibition of HMG-CoA reductase activity).
Setting [3] is: male rats, oral, in 0.5% carboxymethylcellulose, [1-14C]acetate i.p. 1 h later, serum, calculated or observed.

Take `CC[C@H](C)C(=O)O[C@H]1C[C@@H](C)C=C2C=C[C@H](C)[C@H](CC[C@@H]3C[C@@H](O)CC(=O)O3)[C@H]21` [Mevinolin, reference compound]: at HMG-CoA reductase, 0.14 µM corresponded to half-maximal inhibition (IC50). In assay [1] (po, 1 h), the ED50 stood at 0.41 mg/kg.

Consider `CC(C)c1c(/C=C/[C@@H]2C[C@@H](O)CC(=O)O2)c(-c2ccc(F)cc2)nn1-c1ccccc1` (relative stereo) [Example 11, (E)-Trans-6-(2'-[3"-(4'"-fluorophenyl)-5"-(1'"-methylethyl)-1"-phenyl-1H-pyrazol-4"-yl]ethenyl)-4-hydroxy-3,4,5,6-tetrahydro-2H-pyran-2-one], for which, on HMG-CoA reductase (setting [2]), the IC50 is 0.26 µM.

As to `CC[C@H](C)C(=O)O[C@H]1CCC=C2C=C[C@H](C)[C@H](CC[C@@H]3C[C@@H](O)CC(=O)O3)[C@H]21` [Compactin, reference compound], the ED50 in assay [1] (setting [3]) was 3.5 mg/kg.

In the case of `CC(C)n1nc(-c2ccccc2)c(-c2ccc(F)cc2)c1/C=C\[C@@H]1C[C@@H](O)CC(=O)O1` [Example 2, (Z)-Trans-6S-(2'-[4"-(4'"-fluorophenyl)-1"-(1'"-methylethyl)-3"-phenyl-1H-pyrazol-5"-yl]ethenyl)-4R-hydroxy-3,4,5,6-tetrahydro-2H-pyran-2-one], the IC50 on HMG-CoA reductase (setting [2]) was 103 µM.

`CC(C)n1nc(-c2ccccc2)c(-c2ccc(F)cc2)c1/C=C/[C@@H](O)C[C@@H](O)CC(=O)O` (relative stereo) [Example 7, Sodium erythro-(E)-3,5-dihydroxy-7-[4'-(4"-fluorophenyl)-1'-(1"-methylethyl)-3'-phenyl-1H-pyrazol-5'-yl]hept-6-enoate]: the IC50 at HMG-CoA reductase (setting [2]) is 0.04 µM. In assay [1] (setting [3]), the ED50 was 0.06 mg/kg.

With `CC(C)n1nc(-c2ccccc2)c(-c2ccc(F)cc2)c1/C=C/[C@@H]1C[C@@H](O)CC(=O)O1` [Example 1, (E)-Trans-6S-(2'-[4"-(4'"-fluorophenyl)-1"-(1'"-methylethyl)-3"-phenyl-1H-pyrazol-5"-yl]ethenyl)-4R-hydroxy-3,4,5,6-tetrahydro-2H-pyran-2-one], the IC50 at HMG-CoA reductase (setting [2]) was 0.08 µM.

Consider `CC(C)n1nc(-c2ccccc2)c(-c2ccc(F)cc2)c1/C=C/[C@@H](O)C[C@@H](O)CC(=O)O` [Example 3, Sodium erythro-(E)-3R,5S-dihydroxy-7-[4'-(4"-fluorophenyl)-1'-(1"-methylethyl)-3'-phenyl-1H-pyrazol-5'-yl]hept-6-enoate], for which the IC50 on HMG-CoA reductase (setting [2]) was 0.06 µM. Also, the ED50 in assay [1] (setting [3]) is 0.05 mg/kg.

For the molecule `CC(C)c1nn(-c2ccccc2)c(-c2ccc(F)cc2)c1/C=C/[C@@H](O)C[C@@H](O)CC(=O)O` (relative stereo) [Example 14, Sodium erythro-(±)-(E)-3,5-dihydroxy-7-[5'-(4"-fluorophenyl)-3'-(1"-methylethyl)-1'-phenyl-1H-pyrazol-4'-yl]hept-6-enoate], the IC50 at HMG-CoA reductase (setting [2]) was 0.02 µM. For the same molecule, the ED50 in assay [1] (setting [3]) was 0.013 mg/kg.

Broadly, the IC50 is the point on the concentration scale where inhibition reaches its midpoint. Broadly, the ED50 is the midpoint of the dose-response relation.
